From paper PMC7690585, “Target-Mediated Brain Tissue Binding for Small Molecule Inhibitors of Heat Shock Protein 90” (Pharmaceutics, 2020)

Test: in vitro
Conditions: NMRI, mouse, brain homogenate, pH 7
Experimental: Brain tissue from Naval Medical Research Institute (NMRI) mice was homogenized in phosphate buffer (1 g: 2 mL) and stored in −80 °C freezer before use. For dialysis experiment, 150 µL of brain homogenate (fresh blood collected on EDTA-K2 and diluted 1:1 with phosphate buffer or plasma) was added to one compartment of a dialysis plate (assembled according to the manufacturer instructions with a dialysis membrane between the 2 compartments) against 150 µL of phosphate buffer pH 7. The test compound was added to the compartment with brain homogenate (or plasma) and the plate was incubated in an incubator with a 5% CO2 and rotating at 150 rpm for 5 h. At the end of the incubation time, aliquots of 90 µL of samples were removed from both the buffer and the brain homogenate compartments. The aliquots were added to 120 µL of acetonitrile containing the internal standard. The mixture was centrifuged at 4000 rpm for 10 min and the supernatant was collected for LC-MS/MS analysis. All equilibrium dialysis studies were performed in triplicate at each tested concentration.
Binding to brain tissues was assessed using 6 different concentrations of test items ranging from 0.3 to 100 µM. Warfarin was used as control.
Determination of fractions unbound was conducted according to the equations below:fu = Creceiver (CT0 − Creceiver)(1)
In brain homogenate (blood or plasma):(2) % Undiluted fu=100 ×1/D/1/fu−1+1/D (3) % Recovery=100 × Creceiver +Cdonor/CT0 where
Dilution factor (D) is determined as 3 in this assay.

With `CC(=O)CC(c1ccccc1)c1c(O)c2ccccc2oc1=O` (stereo not shown) [Warfarin] the “Ratio (30 µM/1 µM) Unbound Fractions in Brain” value (5 h) was 1.5, the fraction unbound at 5 h, 0.3 µM was 0.086 ± 0.002 and the fraction unbound at 5 h, 1 µM was 0.112 ± 0.001. The fraction unbound at 5 h, 3 µM was 0.143 ± 0.005, the fraction unbound at 5 h, 10 µM was 0.143 ± 0.006 and the fraction unbound at 5 h, 30 µM was 0.168 ± 0.006. The fraction unbound at 5 h, 100 µM was 0.179 ± 0.009.
